In ChEMBL document CHEMBL1641458, “A journey from benzanilides to dithiobenzanilides: Synthesis of selective spasmolytic compounds” (Bioorg Med Chem, 2011):

How the values were obtained:
[1] = tested on: Ileum; experiment: tissue or blood; assay type: functional, tissue-based; conditions: Cavia porcellus, 0.75 h
[2] = Antispasmodic activity in guinea pig arteria pulmonalis ring assessed as inhibition of 60 mM KCl-induced contraction after 45 mins; assay type: functional, Cavia porcellus
[3] = tested on: Aorta; experiment: tissue or blood; assay type: functional, tissue-based; conditions: Cavia porcellus, 0.75 h

Measured: IC50

COc1cc(C(=S)Nc2cccc(NC(=S)c3cc(OC)c(OC)c(OC)c3)c2)cc(OC)c1OC
> 100 µM: all assays above
